Results as given in PMC11642981, “Bioguided Identification of Polymethoxyflavones as Novel Vascular CaV1.2 Channel Blockers from Citrus Peel” (Molecules, 2024).
Where two headings read alike, the source gives them in different places.

Key:
Assay type in all cases: cell-based
[1] = molecular target: T1, CaV1.2 channel (α1C subunit) (Rattus norvegicus, UniProt P22002); assay: whole-cell patch-clamp, complete block of IBa1.[…] at […]
T1 construct: gene Cacna1c; native channel in freshly isolated rat tail artery myocytes

[2] = molecular target: T1, CaV1.2 channel (α1C subunit); assay: whole-cell patch-clamp, Ba2+ current (IBa1.[…]); conditions: read-out: % reduction in current amplitude at 100 μM
[3] = molecular target: T1, CaV1.2 channel (α1C subunit); assay: whole-cell patch-clamp, Ba2+ current (IBa1.[…])

T1 sequence (P22002 whole entry): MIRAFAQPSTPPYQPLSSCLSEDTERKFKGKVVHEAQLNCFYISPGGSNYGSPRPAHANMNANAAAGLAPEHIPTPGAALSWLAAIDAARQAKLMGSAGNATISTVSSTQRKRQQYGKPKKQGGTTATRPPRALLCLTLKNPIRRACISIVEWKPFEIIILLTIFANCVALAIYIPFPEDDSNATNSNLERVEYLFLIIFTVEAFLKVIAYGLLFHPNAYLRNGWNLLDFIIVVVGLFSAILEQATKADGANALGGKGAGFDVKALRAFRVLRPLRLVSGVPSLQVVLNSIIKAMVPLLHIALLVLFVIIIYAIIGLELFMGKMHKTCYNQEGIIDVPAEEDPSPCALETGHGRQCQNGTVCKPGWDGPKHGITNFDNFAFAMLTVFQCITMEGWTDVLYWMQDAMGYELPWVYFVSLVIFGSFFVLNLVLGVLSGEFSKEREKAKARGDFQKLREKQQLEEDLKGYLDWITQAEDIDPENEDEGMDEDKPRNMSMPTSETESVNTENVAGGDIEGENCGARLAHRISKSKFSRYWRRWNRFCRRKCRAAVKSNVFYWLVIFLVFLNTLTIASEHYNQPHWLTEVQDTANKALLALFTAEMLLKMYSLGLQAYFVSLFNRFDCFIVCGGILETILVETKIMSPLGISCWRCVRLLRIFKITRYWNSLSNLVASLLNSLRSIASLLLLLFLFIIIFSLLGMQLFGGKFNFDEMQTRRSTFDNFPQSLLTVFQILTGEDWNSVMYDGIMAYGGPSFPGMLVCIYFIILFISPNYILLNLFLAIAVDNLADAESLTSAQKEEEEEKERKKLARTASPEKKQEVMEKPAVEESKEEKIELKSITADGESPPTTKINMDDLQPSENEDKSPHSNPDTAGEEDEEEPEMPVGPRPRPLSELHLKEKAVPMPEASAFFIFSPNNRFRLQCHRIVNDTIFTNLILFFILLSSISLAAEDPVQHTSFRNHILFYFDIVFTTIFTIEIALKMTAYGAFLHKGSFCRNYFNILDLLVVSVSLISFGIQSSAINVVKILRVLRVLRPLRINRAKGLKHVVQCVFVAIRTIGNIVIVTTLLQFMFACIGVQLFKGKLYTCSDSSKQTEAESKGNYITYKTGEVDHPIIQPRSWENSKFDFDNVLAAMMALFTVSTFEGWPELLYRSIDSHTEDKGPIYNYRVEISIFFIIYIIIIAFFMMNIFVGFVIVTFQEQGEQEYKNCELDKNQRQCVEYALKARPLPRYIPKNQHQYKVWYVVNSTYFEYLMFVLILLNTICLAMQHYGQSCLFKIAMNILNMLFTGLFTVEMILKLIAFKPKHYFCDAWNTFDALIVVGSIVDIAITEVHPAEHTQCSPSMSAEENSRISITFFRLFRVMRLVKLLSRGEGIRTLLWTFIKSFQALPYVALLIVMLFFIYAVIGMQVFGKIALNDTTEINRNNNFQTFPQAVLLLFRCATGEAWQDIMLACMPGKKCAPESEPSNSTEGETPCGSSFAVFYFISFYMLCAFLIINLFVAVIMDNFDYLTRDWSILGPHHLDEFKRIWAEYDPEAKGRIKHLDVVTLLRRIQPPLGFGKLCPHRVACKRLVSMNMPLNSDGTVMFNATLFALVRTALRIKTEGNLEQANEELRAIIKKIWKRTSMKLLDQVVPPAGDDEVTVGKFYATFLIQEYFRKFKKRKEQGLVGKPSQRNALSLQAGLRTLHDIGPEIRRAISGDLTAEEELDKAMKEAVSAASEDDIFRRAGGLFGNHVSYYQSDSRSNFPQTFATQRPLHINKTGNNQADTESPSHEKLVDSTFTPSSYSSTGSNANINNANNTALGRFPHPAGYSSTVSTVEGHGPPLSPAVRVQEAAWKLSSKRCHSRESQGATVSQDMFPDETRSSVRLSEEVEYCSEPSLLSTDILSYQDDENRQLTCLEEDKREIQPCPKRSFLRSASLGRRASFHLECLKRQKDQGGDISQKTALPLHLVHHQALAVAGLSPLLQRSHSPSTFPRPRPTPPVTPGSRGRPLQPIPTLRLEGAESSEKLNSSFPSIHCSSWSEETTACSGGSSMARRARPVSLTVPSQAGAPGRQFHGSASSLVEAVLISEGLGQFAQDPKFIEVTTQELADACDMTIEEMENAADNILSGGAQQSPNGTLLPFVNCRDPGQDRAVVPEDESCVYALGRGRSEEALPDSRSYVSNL

With `COC(=O)C1=C(C)NC(C)=C(C(=O)OC)C1c1ccccc1[N+](=O)[O-]` [nifedipine] the “whole-cell patch-clamp, complete block of IBa1.2 at 10 μM” value [1] was 10 µM (completely blocked IBa1.2).
Work on `COc1ccc(-c2cc(=O)c3c(OC)c(OC)c(OC)c(OC)c3o2)cc1OC` [nobiletin] yielded an inhibition at 100 µM [2] of 50%.
For `COc1ccc(-c2cc(=O)c3c(OC)c(OC)c(OC)cc3o2)cc1` [scutellarein tetramethyl ether], the IC50 [3] was about 33.1 µM.
With `COc1ccc(-c2cc(=O)c3c(OC)c(OC)c(OC)cc3o2)cc1OC` [sinensetin] the inhibition at 100 µM [2] was 50%.
Work on `COc1ccc(-c2cc(=O)c3c(OC)c(OC)c(OC)c(OC)c3o2)cc1` [tangeretin] yielded an IC50 ([3]; read-out: IC50 (converted)) of about 66.1 µM.
